Results taken from article PMC8234359, “Pharmacokinetics in Zebrafish Embryos (ZFE) Following Immersion and Intrayolk Administration: A Fluorescence-Based Analysis” (Pharmaceuticals, 2021).

Experiments:
[1] = Immersion of two-cell stage zebrafish embryos (10 µM), spatiotemporal fluorescence imaging and non-compartmental AUC; format: in vivo, zebrafish (Danio rerio); settings: immersion 10 µM; for intrabody accumulation on longer incubations: 24–72 h; for AUC-RoB IMM (AUC0.25–72h): rest of body (non-yolk); for AUC-RoB IMM (AUC0.25–72h) / AUC-WB IMM (AUC0.25–72h) / AUC-Yolk IMM (AUC0.25–72h): 0.25 to 72 h; for AUC-WB IMM (AUC0.25–72h): whole body
Experimental: Immersion treatment: zebrafish embryos at the two-cell stage were immersed in Danieau’s medium containing the compound. A compound concentration of 10 µM and DMSO concentration of 0.1% (v/v) in a volume of 5 mL was used per well (6-well-plates). At 72 h, the zebrafish medium containing the compound was removed, and the animals rinsed 3 × with Danieau’s medium. Next, the embryos were kept for another 48 h in Danieau’s medium supplemented with DMSO (0.1%, v/v) in the absence of compound. In the case of control experiments, the embryos were exposed to Danieau’s medium supplemented with DMSO (0.1%, v/v).
Animals were kept in dark conditions in an incubator at 28.5 °C for defined time-periods (0.25, 1, 3, 6, 24, 48, 72, 96, and 120 h) before image analysis in a dark room. To acquire images, a Leica MZ10F fluorescent stereomicroscope (Leica Microsystems Inc., Buffalo Grove, IL, USA) with a 4.0× planapochromatic objective (10447243) was used, equipped with a Digital Color Camera Leica DFC310 FX (Software LAS 4.13, Leica Microsystems Inc., Buffalo Grove, IL, USA). Filter sets were GFP 10446222 in the case of compound FAMA, dSRED 10447079 in the cases of S-CY3A, CY3A and TAMRA, and CY5 10446366 in the cases of S-CY5.5A and S-CY5A. Previous to fluorescence imaging, the embryos were dechorionated (up to 72 hpf) and immobilized by hypothermia, rinsed three times with Danieau’s medium, and positioned latero-lateral (right lateral recumbency) on a single cavity glass slide and covered by a drop of agarose (0.1%). Then, using MetaMorph (Microscopy Automation and Image Analysis Software V.7.8.00, Molecular Devices, LLC., San Jose, CA, USA) and by manual delineation of the whole-body (WB) (up to 120 h) and yolk sac contours (up to 72 h) of the zebrafish embryos the fluorescence in the selected area was quantified as integrated fluorescence intensity (RFU). The RFU values of the non-yolk compartment (i.e., RoB: rest of body) was assessed by subtracting the yolk results from the corresponding integrated fluorescence intensities found in the WB.
(§1) In order to determine the degree of tissue exposure following administration of the fluorescent compounds, we calculated the AUC as the pharmacokinetic parameter of the non-compartmental analysis. The area under a plot of the fluorescence intensity (RFUT) versus time is referred to as the area under the (zero moment) curve AUC. RFUT represents the relative amount of compound present in the ZFE by measuring the integrated fluorescence intensity of delineated contours in fluorescence images (Figure 2). The AUC was then determined by summing the incremental area of subsequent trapezoids. […] In some cases, observations were censored and excluded from the analysis, due to possible fluorescence quenching effect of compounds that remains at the site of the intrayolk microinjection.

[2] = Intrayolk (IY) microinjection of two-cell stage zebrafish embryos (2 mg/kg), spatiotemporal fluorescence imaging and non-compartmental AUC; format: in vivo, zebrafish (Danio rerio); settings: for accumulation in the gastrointestinal system / localization of the dye after IY microinjection: IY microinjection 2 mg/kg; for accumulation in the gastrointestinal system: after 96 hpf; for RD (IY), Relative Distribution: ratio of AUCRoB to AUCWB after microinjection into the yolk (2 mg/kg), 0.25–72 h; for localization of the dye after IY microinjection: first hours post injection
Text: Intrayolk microinjection (IY): zebrafish embryos at the two-cell stage were positioned in a Petri dish at room temperature. […] Needles were filled with compounds dissolved in the vehicle (DMSO/saline (1:1)), placed under the microscope, and using forceps, the tip was cut off in a manner to allow for a consistent volume to be injected. Afterwards, the embryos were transferred to 6-well plates. Control embryos were exposed to vehicle only. […] Previous to fluorescence imaging, the embryos were dechorionated (up to 72 hpf) and immobilized by hypothermia, rinsed three times with Danieau's medium, and positioned latero-lateral (right lateral recumbency) on a single cavity glass slide and covered by a drop of agarose (0.1%). Then, using MetaMorph (Microscopy Automation and Image Analysis Software V.7.8.00, Molecular Devices, LLC., San Jose, CA, USA) and by manual delineation of the whole-body (WB) (up to 120 h) and yolk sac contours (up to 72 h) of the zebrafish embryos the fluorescence in the selected area was quantified as integrated fluorescence intensity (RFU). The RFU values of the non-yolk compartment (i.e., RoB: rest of body) was assessed by subtracting the yolk results from the corresponding integrated fluorescence intensities found in the WB. In order to determine the degree of tissue exposure following administration of the fluorescent compounds, we calculated the AUC as the pharmacokinetic parameter of the non-compartmental analysis. The area under a plot of the fluorescence intensity (RFUT) versus time is referred to as the area under the (zero moment) curve AUC. RFUT represents the relative amount of compound present in the ZFE by measuring the integrated fluorescence intensity of delineated contours in fluorescence images (Figure 2). The AUC was then determined by summing the incremental area of subsequent trapezoids.

[3] = Relative Exposure (RE10/2/72h): ratio of AUC immersion to AUC IY microinjection; format: in vivo, zebrafish (Danio rerio)
Experimental: We then assessed by non-compartmental analysis the area from 0.25 to 72 h post exposure under the concentration–time curve (AUC0.25–72h) (Table 1) that represents well the relative tissue exposure to fluorescent compound across time. These absolute fluorescence intensities however cannot be comscriptpared across compounds as they depend critically on the respective quantum yields of the compounds and the device settings. To be able to compare the PK behavior of the compounds following different administration routes, we calculated the fluorescence-independent pharmacokinetic parameter Relative Exposure (RE10/2/72h), i.e., the ratio of AUC0.25–72h immersion (10 µM) to AUC0.25–72h IY microinjection (2 mg/kg). Separate RE values were calculated based on the whole body (WB), rest-of-body (RoB) and yolk fluorescence measurements (Table 2).
as §1
We further calculated the Relative Exposure (RE10/2) by comparing the […] after IY microinjection (2 mg/kg), as defined in Equation (2): (2) RE10/2/h=AUCImm/AUCInj.

[4] = set-up: method as in PMID 34108572; settings: experimentally determined before; cited from earlier work
[5] = rest of body (non-yolk), intrayolk microinjection 2 mg/kg, 0.25 to 72 h
[6] = whole body, intrayolk microinjection 2 mg/kg, 0.25 to 72 h
[7] = yolk, intrayolk microinjection 2 mg/kg, 0.25 to 72 h

Row | AUC-RoB IMM (AUC0.25–72h) [1] [RFU × 10^7] | AUC-WB IMM (AUC0.25–72h) [1] [RFU × 10^7] | AUC-Yolk IMM (AUC0.25–72h) [1] [RFU × 10^7] | accumulation in the gastrointestinal system [2] | RD (IY), Relative Distribution [2] | AUC-RoB IY (AUC0.25–72h) [2, 5] [RFU × 10^7] | AUC-WB IY (AUC0.25–72h) [2, 6] [RFU × 10^7] | AUC-Yolk IY (AUC0.25–72h) [2, 7] [RFU × 10^7] | intrabody accumulation after one hour of immersion followed by dechorionation ([1]; 1 h, dechorionated and rinsed) | RE-WB (Relative Exposure RE-WB10/2/72h) ([3]; zebrafish, in vivo) | AUC-RoB IY (AUC0.25–72h) ([2]; zebrafish, in vivo, 2 mg/kg) [RFU × 10^7] | AUC-WB IY (AUC0.25–72h) ([2]; zebrafish, in vivo, 2 mg/kg) [RFU × 10^7] | AUC-Yolk IY (AUC0.25–72h) ([2]; zebrafish, in vivo, 2 mg/kg) [RFU × 10^7] | Compound | intrabody accumulation on longer incubations [1] | RE-RoB (Relative Exposure RE-RoB10/2/72h) ([3]; rest of body, AUC0.25–72h immersion (10 µM) / AUC0.25–72h IY microinjection (2 mg/kg)) | RE-WB (Relative Exposure RE-WB10/2/72h) ([3]; whole body, AUC0.25–72h immersion (10 µM) / AUC0.25–72h IY microinjection (2 mg/kg)) | RE-Yolk (Relative Exposure RE-Yolk10/2/72h) ([3]; yolk, AUC0.25–72h immersion (10 µM) / AUC0.25–72h IY microinjection (2 mg/kg)) | Log D [4] | localization of the dye after IY microinjection [2]
1 | 6.41 | 20.9 | 14.6 | accumulation | 0.17 | 3.21 | 18.9 | 15.7 | fast intrabody accumulation | 1.11 |  |  |  | C#CCNC(=O)CCCCCN1C(=CC=CC2=[N+](C)c3ccccc3C2(C)C)C(C)(C)c2ccccc21.[Cl-] [CY3A, Cyanine 3] | further intrabody accumulation |  |  |  | 1.73 | 
2 | 0.84 | 1.17 | 0.36 | accumulation | 0.32 | 6.93 |  | 14.9 |  | 0.05 |  |  |  | C#CCNC(=O)c1ccc2c(c1)C(=O)OC21c2ccc(O)cc2Oc2cc(O)ccc21 [FAMA, Fam A, 5-Isomer] |  |  |  |  | −0.14 | 
3 | 2.67 | 4.56 | 1.89 | accumulation | 0.24 | 7.65 | 31.4 | 23.8 |  | 0.15 |  |  |  | C#CCNC(=O)CCCCCN1C(=CC=CC2=[N+](C)c3ccc(S(=O)(=O)[O-])cc3C2(C)C)C(C)(C)c2cc(S(=O)(=O)[O-])ccc21.[K+] [S-CY3A, S-Cyanine 3] |  |  |  |  | −1.96 | stayed localized to the microinjection site
4 | 0 | 0 | 0 |  | 0.19 | 1.02 | 5.45 | 4.42 |  | 0 |  |  |  | C#CCNC(=O)CCCCC[N+]1=C(C=CC=CC=C2N(C)c3ccc4c(S(=O)(=O)[O-])cc(S(=O)(=O)[O-])cc4c3C2(C)C)C(C)(C)c2c1ccc1c(S(=O)(=O)[O-])cc(S(=O)(=O)[O-])cc21.[K+].[K+].[K+] [S-CY5.5A, S-Cyanine 5.5] |  |  |  |  | −1.68 | stayed localized to the microinjection site
5 |  |  |  |  |  |  |  |  |  | 0.10 | 1.48 | 5.76 | 4.29 | Rhodamine 6g 6-Isomer [Compound R6GA] |  |  |  |  | 1.07 | 
6 | 0 | 0 | 0 |  | 0.18 | 1.67 | 9.49 | 7.82 |  | 0 |  |  |  | S-Cyanine 5A [S-CY5A] |  |  |  |  | −0.72 | stayed localized to the microinjection site

Row | Compound | AUC-RoB IMM (AUC0.25–72h) [1] [RFU × 10^7] | AUC-WB IMM (AUC0.25–72h) [1] [RFU × 10^7] | AUC-Yolk IMM (AUC0.25–72h) [1] [RFU × 10^7] | accumulation in the gastrointestinal system [2] | RD (IY), Relative Distribution [2] | AUC-RoB IY (AUC0.25–72h) [2, 5] [RFU × 10^7] | AUC-WB IY (AUC0.25–72h) [2, 6] [RFU × 10^7] | AUC-Yolk IY (AUC0.25–72h) [2, 7] [RFU × 10^7] | intrabody accumulation after one hour of immersion followed by dechorionation ([1]; 1 h, dechorionated and rinsed) | RE-WB (Relative Exposure RE-WB10/2/72h) ([3]; zebrafish, in vivo) | AUC-RoB IY (AUC0.25–72h) ([2]; zebrafish, in vivo, 2 mg/kg) [RFU × 10^7] | AUC-WB IY (AUC0.25–72h) ([2]; zebrafish, in vivo, 2 mg/kg) [RFU × 10^7] | AUC-Yolk IY (AUC0.25–72h) ([2]; zebrafish, in vivo, 2 mg/kg) [RFU × 10^7] | intrabody accumulation on longer incubations [1] | RE-RoB (Relative Exposure RE-RoB10/2/72h) ([3]; rest of body, AUC0.25–72h immersion (10 µM) / AUC0.25–72h IY microinjection (2 mg/kg)) | RE-WB (Relative Exposure RE-WB10/2/72h) ([3]; whole body, AUC0.25–72h immersion (10 µM) / AUC0.25–72h IY microinjection (2 mg/kg)) | RE-Yolk (Relative Exposure RE-Yolk10/2/72h) ([3]; yolk, AUC0.25–72h immersion (10 µM) / AUC0.25–72h IY microinjection (2 mg/kg)) | Log D [4] | localization of the dye after IY microinjection [2]
7 | C#CCNC(=O)c1ccc(-c2c3ccc(=[N+](C)C)cc-3oc3cc(N(C)C)ccc23)c(C(=O)[O-])c1 (single isomer, unassigned) [TAMRA] | 2.78 | 7.76 | 4.98 | accumulation | 0.28 | 11.2 | 40.4 | 29.1 |  |  |  |  |  | further intrabody accumulation | 0.25 | 0.19 | 0.17 | 0.46 | 
